Experimental data reported in ChEMBL document CHEMBL5724914, “Linking interpersonal differences in gut microbiota composition and drug biotransformation activity” (2024).

Tests used:
[1] = The drug is tested on Z-030 corresponding to mouse gut metagenome with ENA study accession number: PRJEB37062 and ENA sample accession number: ERS12561829 for biotransformation under anaerobic condition. The drug concentrations were measured over 9 timepoints collected between 0 and 24 hours of incubation by liquid-chromatography-coupled mass spectrometry (LC–MS); conditions: 2 µM
[2] = The drug is tested on Z-025 corresponding to rabbit gut metagenome with ENA study accession number: PRJEB37062 and ENA sample accession number: ERS12561824 for biotransformation under anaerobic condition. The drug concentrations were measured over 9 timepoints collected between 0 and 24 hours of incubation by liquid-chromatography-coupled mass spectrometry (LC–MS); conditions: 2 µM
[3] = The drug is tested on Z-023 corresponding to metagenome with ENA study accession number: PRJEB37062 and ENA sample accession number: ERS12561822 for biotransformation under anaerobic condition. The drug concentrations were measured over 9 timepoints collected between 0 and 24 hours of incubation by liquid-chromatography-coupled mass spectrometry (LC–MS); conditions: 2 µM
[4] = The drug is tested on Z-017 corresponding to mouse gut metagenome with ENA study accession number: PRJEB37062 and ENA sample accession number: ERS12561816 for biotransformation under anaerobic condition. The drug concentrations were measured over 9 timepoints collected between 0 and 24 hours of incubation by liquid-chromatography-coupled mass spectrometry (LC–MS); conditions: 2 µM
[5] = The drug is tested on Z-013 corresponding to rabbit gut metagenome with ENA study accession number: PRJEB37062 and ENA sample accession number: ERS12561813 for biotransformation under anaerobic condition. The drug concentrations were measured over 9 timepoints collected between 0 and 24 hours of incubation by liquid-chromatography-coupled mass spectrometry (LC–MS); conditions: 2 µM
[6] = The drug is tested on Z-011 corresponding to mouse gut metagenome with ENA study accession number: PRJEB37062 and ENA sample accession number: ERS12561811 for biotransformation under anaerobic condition. The drug concentrations were measured over 9 timepoints collected between 0 and 24 hours of incubation by liquid-chromatography-coupled mass spectrometry (LC–MS); conditions: 2 µM
[7] = The drug is tested on Z-010 corresponding to metagenome with ENA study accession number: PRJEB37062 and ENA sample accession number: ERS12561810 for biotransformation under anaerobic condition. The drug concentrations were measured over 9 timepoints collected between 0 and 24 hours of incubation by liquid-chromatography-coupled mass spectrometry (LC–MS); conditions: 2 µM
[8] = The drug is tested on Z-009 corresponding to pig gut metagenome with ENA study accession number: PRJEB37062 and ENA sample accession number: ERS12561809 for biotransformation under anaerobic condition. The drug concentrations were measured over 9 timepoints collected between 0 and 24 hours of incubation by liquid-chromatography-coupled mass spectrometry (LC–MS); conditions: 2 µM
[9] = The drug is tested on Z-003 corresponding to pig gut metagenome with ENA study accession number: PRJEB37062 and ENA sample accession number: ERS12561803 for biotransformation under anaerobic condition. The drug concentrations were measured over 9 timepoints collected between 0 and 24 hours of incubation by liquid-chromatography-coupled mass spectrometry (LC–MS); conditions: 2 µM
[10] = The drug is tested on WLS-240 corresponding to human gut metagenome with ENA study accession number: PRJEB37062 and ENA sample accession number: ERS12561773 for biotransformation under anaerobic condition. The drug concentrations were measured over 9 timepoints collected between 0 and 24 hours of incubation by liquid-chromatography-coupled mass spectrometry (LC–MS); conditions: 2 µM
[11] = The drug is tested on WLS-220 corresponding to human gut metagenome with ENA study accession number: PRJEB37062 and ENA sample accession number: ERS12561769 for biotransformation under anaerobic condition. The drug concentrations were measured over 9 timepoints collected between 0 and 24 hours of incubation by liquid-chromatography-coupled mass spectrometry (LC–MS); conditions: 2 µM
[12] = The drug is tested on WLS-090 corresponding to human gut metagenome with ENA study accession number: PRJEB37062 and ENA sample accession number: ERS12561753 for biotransformation under anaerobic condition. The drug concentrations were measured over 9 timepoints collected between 0 and 24 hours of incubation by liquid-chromatography-coupled mass spectrometry (LC–MS); conditions: 2 µM
[13] = human gut metagenome, 24 h, 2 µM
[14] = human gut metagenome, 24 h, 2 µM; remark: listed apart in the source
[15] = human gut metagenome, 24 h, 2 µM; remark: listed apart in the source
[16] = human gut metagenome, 24 h, 2 µM; remark: listed apart in the source
[17] = human gut metagenome, 24 h, 2 µM; remark: listed apart in the source
[18] = human gut metagenome, 24 h, 2 µM; remark: listed apart in the source
[19] = human gut metagenome, 24 h, 2 µM; remark: listed apart in the source
[20] = human gut metagenome, 24 h, 2 µM; remark: listed apart in the source
Also: call rule not given here.

| Bacterial Biotransformation [1] | Bacterial Biotransformation [2] | Bacterial Biotransformation [4] | Bacterial Biotransformation [5] | Bacterial Biotransformation [6] | Bacterial Biotransformation [7] | Bacterial Biotransformation [8] | Bacterial Biotransformation [9] | Bacterial Biotransformation [15] | Bacterial Biotransformation [17] | Bacterial Biotransformation [19] | Bacterial Biotransformation [20] | SMILES | Bacterial Biotransformation [3] | Bacterial Biotransformation [10] | Bacterial Biotransformation [11] | Bacterial Biotransformation [12] | Bacterial Biotransformation [13] | Bacterial Biotransformation [14] | Bacterial Biotransformation [16] | Bacterial Biotransformation [18] |
| --- | --- | --- | --- | --- | --- | --- | --- | --- | --- | --- | --- | --- | --- | --- | --- | --- | --- | --- | --- | --- |
| Compound NOT metabolized | Compound metabolized | Compound metabolized | Compound metabolized | Compound metabolized | Compound metabolized | Compound metabolized | Compound metabolized | Compound metabolized | Compound metabolized | Compound NOT metabolized | Compound metabolized | C#C[C@]1(OC(C)=O)CC[C@H]2[C@@H]3CCC4=CC(=O)CC[C@@H]4[C@H]3CC[C@@]21C [NORETHINDRONE ACETATE] | Compound metabolized | Compound metabolized | – | – | – | – | Compound metabolized | Compound metabolized |
| Compound NOT metabolized | Compound metabolized | Compound NOT metabolized | Compound metabolized | Compound metabolized | Compound metabolized | Compound metabolized | Compound metabolized | Compound NOT metabolized | Compound NOT metabolized | Compound NOT metabolized | Compound metabolized | CC(=O)O[C@H]1C(=O)[C@@]2(C)[C@H]([C@H](OC(=O)c3ccccc3)[C@]3(O)C[C@H](OC(=O)[C@H](O)[C@@H](NC(=O)c4ccccc4)c4ccccc4)C(C)=C1C3(C)C)[C@]1(OC(C)=O)CO[C@@H]1C[C@@H]2O [PACLITAXEL] | Compound metabolized | Compound NOT metabolized | Compound NOT metabolized | Compound NOT metabolized | – | – | Compound NOT metabolized | Compound metabolized |

Further lines, the compound ahead of its results:

| SMILES | Bacterial Biotransformation [1] | Bacterial Biotransformation [2] | Bacterial Biotransformation [4] | Bacterial Biotransformation [5] | Bacterial Biotransformation [6] | Bacterial Biotransformation [7] | Bacterial Biotransformation [8] | Bacterial Biotransformation [9] | Bacterial Biotransformation [15] | Bacterial Biotransformation [17] | Bacterial Biotransformation [19] | Bacterial Biotransformation [20] | Bacterial Biotransformation [3] | Bacterial Biotransformation [10] | Bacterial Biotransformation [11] | Bacterial Biotransformation [12] | Bacterial Biotransformation [13] | Bacterial Biotransformation [14] | Bacterial Biotransformation [16] | Bacterial Biotransformation [18] |
| --- | --- | --- | --- | --- | --- | --- | --- | --- | --- | --- | --- | --- | --- | --- | --- | --- | --- | --- | --- | --- |
| CC(C)C[C@H]1C(=O)N2CCC[C@H]2[C@]2(O)O[C@](NC(=O)[C@@H]3C=C4c5cccc6[nH]c(Br)c(c56)C[C@H]4N(C)C3)(C(C)C)C(=O)N12.CS(=O)(=O)O [BROMOCRIPTINE MESYLATE] | Compound metabolized | Compound metabolized | Compound metabolized | Compound metabolized | Compound metabolized | Compound metabolized | Compound metabolized | Compound metabolized | Compound NOT metabolized | Compound metabolized | – | – | Compound metabolized | Compound NOT metabolized | Compound metabolized | Compound metabolized | Compound metabolized | Compound metabolized | Compound NOT metabolized | Compound NOT metabolized |
| CN1C[C@H](C(=O)N[C@]2(C)O[C@@]3(O)[C@@H]4CCCN4C(=O)[C@H](Cc4ccccc4)N3C2=O)C[C@@H]2c3cccc4[nH]cc(c34)C[C@H]21.CS(=O)(=O)O [DIHYDROERGOTAMINE MESYLATE] | Compound NOT metabolized | Compound metabolized | Compound NOT metabolized | Compound NOT metabolized | Compound NOT metabolized | Compound NOT metabolized | Compound NOT metabolized | Compound NOT metabolized | – | – | – | – | Compound metabolized | – | – | – | – | – | – | – |
| COC1=C(OC)C(=O)C(CCCCCCCCCCO)=C(C)C1=O [IDEBENONE] | Compound NOT metabolized | Compound metabolized | Compound NOT metabolized | Compound metabolized | Compound metabolized | Compound metabolized | Compound metabolized | Compound metabolized | Compound metabolized | Compound metabolized | Compound NOT metabolized | – | Compound metabolized | – | – | – | – | Compound metabolized | – | – |
| Cc1ccc(NC(=O)c2ccc(CN3CCN(C)CC3)cc2)cc1Nc1nccc(-c2cccnc2)n1 [IMATINIB] | Compound NOT metabolized | Compound NOT metabolized | Compound NOT metabolized | Compound NOT metabolized | Compound NOT metabolized | Compound NOT metabolized | Compound NOT metabolized | Compound NOT metabolized | – | – | – | – | – | – | – | – | – | – | – | – |
| Cc1cc2c(s1)Nc1ccccc1N=C2N1CCN(C)CC1 [OLANZAPINE] | Compound NOT metabolized | Compound metabolized | Compound NOT metabolized | Compound NOT metabolized | Compound NOT metabolized | Compound NOT metabolized | Compound NOT metabolized | Compound metabolized | Compound NOT metabolized | Compound NOT metabolized | Compound NOT metabolized | Compound metabolized | Compound NOT metabolized | Compound NOT metabolized | Compound NOT metabolized | – | Compound metabolized | Compound NOT metabolized | Compound NOT metabolized | Compound metabolized |
